The values that follow come from patent publication US20240350597A1, “PROTEASE INHIBITORS” (University College Dublin, priority 2023, published 2024).

Assay [1] concerns mammalian trypsin. Kind of assay: Protease inhibition assay, trypsin. The conditions noted are these: 10 min preincubation, A1AT compared with B3-TMP. It is filed as biochemical. The procedure:
(§1) Proteases were incubated with a 1:5 molar excess of serpin and residual activity was determined by cleavage of fluorescent substrates. All assays were carried out at room temperature in 96-well plates in a total volume of 100 μL. Residual proteolytic activity was measured using a SpectraMax M3 Microplate Reader (Molecular Devices, Inc), using the appropriate buffer and synthetic fluorogenic peptide substrate: Cathepsin L, Z-FR-AMC (10 μM), 50 mM Na-Acetate, 100 mM NaCl, 1 mM EDTA, pH 5.5; Chymotrypsin, Z-AAPF-AMC (5 μM), PBS, 1 mg/ml BSA; Elastase, Met-O-Suc-AAPV-AMC (10 μM), 50 mM Tris, 120 mM NaCl, pH 8.0, 1 mg/ml BSA; Furin, Boc-RVRR-AMC (50 μM) 20 mM Tris, 1 mM CaCl2), 0.5% Brij-35, pH 9; TMPRSS2, Boc-QAR-AMC (80 μM), PBS; Trypsin, Z-FR-AMC (10 μM), 50 mM Tris, 0.2 mM DTT, 1 mg/ml BSA. The excitation and emission wavelengths used were 380 nm and 460 nm respectively. All assays were performed in triplicate.
(§2) As an indication of target protease selectivity, both serpins were tested with mammalian trypsin, chymotrypsin and elastase, in addition to TMPRSS2. A short preincubation time of 10 minutes prior to addition of fluorogenic substrate was used and residual activity determined.

For assay [2], the system named is SARS-CoV-2 Spike pseudoparticles. The assay is classed as cell-based. To be noted: 12.5 μM, A549-ACE2-TMPRSS2 cells.
In assay [3] the target is T1, TMPRSS2 (Homo sapiens, UniProt O15393).
T1 construct: purchased Cusabio Technology
Description: Kinetic analysis of TMPRSS2 inhibition under pseudo first-order conditions. The assay is classed as biochemical. To be noted: room temperature, TMPRSS2 0.1 μM. The procedure:
For kinetic analysis of TMPRSS2 inhibition, second order inhibition rate constants were determined under pseudo first-order conditions using a range of serpin concentrations, and with TMPRSS2 buffer and substrate detailed above. Reactions were performed at room temperature and residual activity was determined at intervals over a 10 min incubation with a molar excess of serpin over protease. Concentration ranges were 0.12 to 0.44 μM for B3-TMP and 1.0 to 4 μM for A1AT. The apparent first order rate constant kobs for each concentration was calculated from the slope of the natural log of residual activity over time (−kobs). These values were plotted against inhibitor concentration and linear regression analysis of this plot gave the second order inhibition rate constant k2, with standard error determined.

Assay [4] deals with T1, TMPRSS2. It is filed as biochemical. The conditions noted are these: 5:1 serpin:protease ratio, 10 min incubation, substrate Boc-QAR-AMC.
Assay [5] has as its system chymotrypsin. Kind of assay: Protease inhibition assay, chymotrypsin. It is filed as biochemical. The conditions noted are these: 10 min preincubation, A1AT compared with B3-TMP. Here is the method: as §1, §2
The subject of assay [6] is pancreatic elastase. Kind of assay: Protease inhibition assay, elastase. It is filed as biochemical. The conditions noted are these: 10 min preincubation, A1AT compared with B3-TMP. The procedure: as §1, §2

T1 sequence (O15393 whole entry): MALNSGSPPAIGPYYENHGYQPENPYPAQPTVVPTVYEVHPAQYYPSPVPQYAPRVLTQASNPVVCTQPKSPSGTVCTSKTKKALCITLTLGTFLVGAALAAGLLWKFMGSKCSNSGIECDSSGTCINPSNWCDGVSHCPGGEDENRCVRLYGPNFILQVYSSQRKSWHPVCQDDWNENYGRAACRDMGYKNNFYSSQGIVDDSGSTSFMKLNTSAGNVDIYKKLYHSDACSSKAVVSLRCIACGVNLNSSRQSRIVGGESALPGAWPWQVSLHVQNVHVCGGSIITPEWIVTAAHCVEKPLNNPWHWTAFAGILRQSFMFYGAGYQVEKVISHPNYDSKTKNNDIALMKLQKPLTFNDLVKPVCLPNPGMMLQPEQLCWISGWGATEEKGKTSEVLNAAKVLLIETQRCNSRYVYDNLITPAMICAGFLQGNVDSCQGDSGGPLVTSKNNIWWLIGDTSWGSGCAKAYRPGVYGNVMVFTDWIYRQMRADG

On to alpha-1-antitrypsin [A1AT], for which, in assay [1], the “trypsin inhibition (in words)” value is recorded as “more effective inhibitor”. For the same substance, in assay [2], the “inhibition of pseudoparticle entry” value stood at 40%. Besides, the “second order inhibition rate constant k2 of TMPRSS2 inhibition” value in assay [3] is listed as “(4.8±0.55)×10^2 M^−1 s^−1”. Further, the “inhibition of TMPRSS2” value in assay [4] turned out to be 15%. Besides, the “chymotrypsin inhibition (in words)” value in assay [5] is given as “more effective inhibitor”. Moreover, the “pancreatic elastase inhibition (in words)” value in assay [6] is listed as “more effective inhibitor”.
